Reference: PMC4280904 (Journal of Veterinary Pharmacology and Therapeutics, 2014)

Columns and labels:
Set-up in all cases: species or system Wistar rats
NAT2 = experiment: In vivo enzyme induction: N-acetyltransferase, procainamide; settings: rats, 20 mg/kg i.p. once daily 7 days
CYP1A = experiment: In vivo enzyme induction: ethylresorufin O-deethylase; settings: rats
CYP2A = experiment: In vivo enzyme induction: ethoxycoumarin O-deethylase; settings: rats
CYP2B = experiment: In vivo enzyme induction: pentylresorufin O-depentylase; settings: rats
CYP3A = experiment: In vivo enzyme induction: erythromycin N-demethylase; settings: rats, 40 mg/kg p.o. once daily 7 days
[1] = 40 mg/kg p.o. once daily 7 days
[2] = 40 mg/kg i.p. once daily 7 days

`C[C@@H]1C[C@H]2[C@@H]3CCC4=CC(=O)C=C[C@]4(C)[C@@]3(F)[C@@H](O)C[C@]2(C)[C@@]1(O)C(=O)CO` [Dexamethasone, dexamethasone, reference compound] was tested, and the “NAT2 activity compared with untreated controls” value (NAT2) was 1.8 fold.
With `CCC1(c2ccccc2)C(=O)NC(=O)NC1=O` [Phenobarbital, phenobarbital] the “CYP1A enzyme activity relative to control” value (CYP1A; [1]) was 5.5 fold, the “CYP2A enzyme activity relative to control” value (CYP2A; [1]) was 2.6 fold and the “CYP2B enzyme activity relative to control” value (CYP2B; [1]) was 17.7 fold. The “CYP3A enzyme activity relative to control” value (CYP3A) was 3.5 fold.
`O=c1cc(-c2ccccc2)oc2ccc3ccccc3c12` [β-naphthoflavone] was tested, and the “CYP1A enzyme activity relative to control” value (CYP1A; [2]) was 25.1 fold, the “CYP2A enzyme activity relative to control” value (CYP2A; [2]) was 15.8 fold and the “CYP2B enzyme activity relative to control” value (CYP2B; [2]) was 3.8 fold.
